Source: patent US20220151955A1, “KETAMINE FOR THE TREATMENT OF […] AND DISORDERS” (The Ketamine Research Foundation, priority 2019, published 2022)

Assays:
[1] = cited from earlier work
[2] = tested on: women with postpartum depression; details: cited from earlier work
[3] = in vivo; cited from earlier work
[4] = Ketamine levels in the breast milk of lactating women after intramuscular ketamine hydrochloride; assay type: in vivo; details: 0.5 and 1.0 mg/kg intramuscular
Experimental: A study of the pharmacodynamics of ketamine in the breast milk of lactating women was performed. Ketamine levels in breast milk were quantified in lactating subjects over time. Four women were given intramuscular injections of ketamine hydrochloride at two doses: 0.5 mg/kg and 1.0 mg/kg at intervals of at least one week apart. Breast milk was collected in one subject at 3 hour intervals through 24 hours, and the succeeding three subjects at 3 hour intervals up to 12 hours. Subjects were of different weights and ethnic backgrounds.
Administered dosages of ketamine ranged from 28 mg to 76 mg. […] For subjects receiving the 0.5 mg/kg dose, the observed range for ketamine in the breast milk of the subject at the 9 to 12 hour collection period (total expression of milk during the period) ranged from 0.09 mg to 1.66 mg. For subjects receiving the 1.0 mg/kg dose, the observed range for ketamine in the breast milk of the subject at the 9 to 12 hour collection period (total expression of milk during the period) ranged from 1.067 mg to 6.22 mg. The highest ketamine level (6.22 mg) was observed following administration of a 76 mg dose of ketamine hydrochloride.

## CN[C@]1(c2ccccc2Cl)CCCCC1=O [S-(+)-ketamine]
[1]; for use in anesthesia
  potency relative to R-(−)-ketamine: twice as potent as R-(−)-ketamine

## CC(=O)[C@H]1CC[C@H]2[C@@H]3CC[C@H]4C[C@H](O)CC[C@]4(C)[C@H]3CC[C@]12C [brexanolone]
[2]; within 60 hours, intravenous over 60 hours, two clinical trials of about 250 women, placebo 25 percent
  women no longer clinically depressed: 50%
[2]; women who received brexanolone
  adverse effects experienced by some women: excessive sedation and sudden loss of consciousness

## CNC1(c2ccccc2Cl)CCCCC1=O (centres unmarked) [ketamine]
[3]
  half-life: less than two and a half hours
[4]
  levels detectable in breast milk at 12 hours: only minimal levels

## NC1(c2ccccc2Cl)CCCCC1=O (centres unmarked) [norketamine]
[1]; active metabolite, as stated in Example 1
  potency relative to ketamine (estimated): one-third the potency of ketamine
[1]; for use in anesthesia
  potency relative to ketamine: one third the potency of ketamine
[4]
  levels detectable in breast milk at 12 hours: only minimal levels
